Assay: High fat diet induced obesity (DIO) mouse model
Type: in vivo, C57CL/6J mice
Settings: for Total Body Weight / Body Weight: in g (unit assumed)
Description: C57CL/6J mice aged 4-6 weeks (Korea Research Institute of Bioscience & Biotechnology, Ohchang, Korea) were housed in Polycarbonate cages (five mice per cage) in a room with a 12 hr:12 hr light-dark cycle and an ambient temperature of 24° C. All the mice were fed a commercial chow diet for 1 week after arrival in the animal facility. Mice were then divided into normal and obesity groups and fed with normal diet (ND) and high fat diets (HFD) respectively. The HFD group was divided into multiple treatment groups: a high fat diet vehicle group (HFD), an orlistat (purchased as OTC drug Alli®) positive control treatment group (ORI, 40 mg/kg of animal weight, 2 times/day) and optionally a sibutramine positive control treatment group (10 mg/kg, 1 time/day). The HFD contained 340 g of fat/kg of HFD (310 g lard plus 30 g soybean oil; Harlan Laboratories, USA). The HFD was formulated to provide 60% of the total energy generated by the diet from fat by replacing carbohydrate energy with lard and soybean oil, whereas the normal diet (ND) group was fed a diet providing only 18% of the total diet energy from fat(Harlan Laboratories, USA).
Body weight was measured once each week and feed intake was measured twice per week. At the end of the experimental period, following a 12 hr. fasting period, the animals were anesthetized with ether, and blood was drawn from the abdominal vein. Liver and kidney and adipose tissues (epididymal, retroperitoneal, perirenal adipose tissues) were removed from each animal, rinsed with physiological saline, and weighed. Serum concentrations of glucose, total cholesterol, triglycerides, and LDL-cholesterol were determined using automatic analyzer (INTEGRA 400, Roche, Germany). Statistical significance of test results was measured using the Student's t-test.

[1] = week 3, mice fed a high fat diet, Mutamba fractions 250 mg/kg oral 2 times per day, mean
[2] = week 4, DIO mice, oral twice daily, mg/kg/day: ORI 40, Combo (Composition 1A) 800, Magnolia 100, Yerba Mate 500, Morus 200
[3] = week 4, DIO mice, combination (5:1) 1200 mg/kg twice a day by gavage, group mean
[4] = week 4, mice fed a high fat diet, Mutamba fractions 250 mg/kg oral 2 times per day, mean
[5] = week 5, DIO mice, oral twice daily, mg/kg/day: ORI 40, Combo (Composition 1A) 800, Magnolia 100, Yerba Mate 500, Morus 200
[6] = week 5, DIO mice, combination (5:1) 1200 mg/kg twice a day by gavage, group mean
[7] = week 5, mice fed a high fat diet, Mutamba fractions 250 mg/kg oral 2 times per day, mean
[8] = week 6, DIO mice, oral twice daily, mg/kg/day: ORI 40, Combo (Composition 1A) 800, Magnolia 100, Yerba Mate 500, Morus 200
[9] = week 6, DIO mice, combination (5:1) 1200 mg/kg twice a day by gavage, group mean
[10] = week 6, mice fed a high fat diet, Mutamba fractions 250 mg/kg oral 2 times per day, mean
[11] = week 7, DIO mice, oral twice daily, mg/kg/day: ORI 40, Combo (Composition 1A) 800, Magnolia 100, Yerba Mate 500, Morus 200
[12] = week 7, DIO mice, combination (5:1) 1200 mg/kg twice a day by gavage, group mean
[13] = week 7, mice fed a high fat diet, Mutamba fractions 250 mg/kg oral 2 times per day, mean
[14] = week 8, DIO mice, oral twice daily, mg/kg/day: ORI 40, Combo (Composition 1A) 800, Magnolia 100, Yerba Mate 500, Morus 200
[15] = week 8, mice fed a high fat diet, Mutamba fractions 250 mg/kg oral 2 times per day, mean

CCCCCCCCCCC[C@@H](C[C@@H]1OC(=O)[C@H]1CCCCCC)OC(=O)[C@H](CC(C)C)NC=O [ORI, orlistat]
Total Body Weight (week 3, DIO mice, combination (5:1) 1200 mg/kg twice a day by gavage, group mean): 35.12
Total Body Weight (week 3, ORI 40 mg/kg, DIO mice (Table 52)): 37.41
Total Body Weight (week 3, ORI 40 mg/kg, DIO mice): 35.66
Body Weight Gain (week 3, ORI 40 mg/kg, mice fed high fat diet): −6.70
Body Weight Gain [1]: −2.63
Body Weight [1]: 37.14
Weight Gain (week 3, orlistat 40 mg/kg oral): −5.27
Weight Gain [2]: −3.84
Total Body Weight [2]: 36.38
Body Weight Gain (week 4, DIO mice, SIB 10 mg/kg, ORI 40 mg/kg, Mutamba extract 32 (G1) 1000 mg/kg/day oral, mean): −2.35
Body Weight Gain (week 4, DIO mice, SIB 10 mg/kg, ORI 40 mg/kg, Mutamba extract 33-2 G1 1000 mg/kg, mean): −1.28
Weight Gain (week 4, DIO mice, combination (1:1) 2000 mg/kg twice a day, group mean): −2.61
Weight Gain [3]: −2.61
Total Body Weight [3]: 35.84
Total Body Weight (week 4, ORI 40 mg/kg, DIO mice (Table 52)): 37.60
Total Body Weight (week 4, ORI 40 mg/kg, DIO mice): 37.28
Body Weight Gain (week 4, ORI 40 mg/kg, mice fed high fat diet): −5.01
Body Weight Gain [4]: −1.28
Body Weight [4]: 38.49
Weight Gain (week 4, orlistat 40 mg/kg oral): −3.47
Weight Gain [5]: −2.57
Total Body Weight [5]: 37.65
Body Weight Gain (week 5, DIO mice, SIB 10 mg/kg, ORI 40 mg/kg, Mutamba extract 32 (G1) 1000 mg/kg/day oral, mean): −1.84
Body Weight Gain (week 5, DIO mice, SIB 10 mg/kg, ORI 40 mg/kg, Mutamba extract 33-2 G1 1000 mg/kg, mean): 0.43
Weight Gain (week 5, DIO mice, combination (1:1) 2000 mg/kg twice a day, group mean): −2.04
Weight Gain [6]: −2.04
Total Body Weight [6]: 36.41
Total Body Weight (week 5, ORI 40 mg/kg, DIO mice (Table 52)): 38.12
Total Body Weight (week 5, ORI 40 mg/kg, DIO mice): 38.57
Body Weight Gain (week 5, ORI 40 mg/kg, mice fed high fat diet): −3.81
Body Weight Gain [7]: 0.43
Body Weight [7]: 40.19
Weight Gain (week 5, orlistat 40 mg/kg oral): −2.34
Weight Gain [8]: −1.47
Total Body Weight [8]: 38.75
Body Weight Gain (week 6, DIO mice, SIB 10 mg/kg, ORI 40 mg/kg, Mutamba extract 32 (G1) 1000 mg/kg/day oral, mean): 0.08
Body Weight Gain (week 6, DIO mice, SIB 10 mg/kg, ORI 40 mg/kg, Mutamba extract 33-2 G1 1000 mg/kg, mean): 3.52
Weight Gain (week 6, DIO mice, combination (1:1) 2000 mg/kg twice a day, group mean): −1.65
Weight Gain [9]: −1.65
Total Body Weight [9]: 36.80
Total Body Weight (week 6, ORI 40 mg/kg, DIO mice (Table 52)): 40.04
Total Body Weight (week 6, ORI 40 mg/kg, DIO mice): 40.03
Body Weight Gain (week 6, ORI 40 mg/kg, mice fed high fat diet): −2.36
Body Weight Gain [10]: 3.52
Body Weight [10]: 43.28
Weight Gain (week 6, orlistat 40 mg/kg oral): −1.08
Weight Gain [11]: −0.26
Total Body Weight [11]: 39.96
Body Weight Gain (week 7, DIO mice, SIB 10 mg/kg, ORI 40 mg/kg, Mutamba extract 32 (G1) 1000 mg/kg/day oral, mean): 1.81
Body Weight Gain (week 7, DIO mice, SIB 10 mg/kg, ORI 40 mg/kg, Mutamba extract 33-2 G1 1000 mg/kg, mean): 3.72
Weight Gain [12]: −0.07
Total Body Weight [12]: 38.38
Total Body Weight (week 7, ORI 40 mg/kg, DIO mice (Table 52)): 41.77
Total Body Weight (week 7, ORI 40 mg/kg, DIO mice): 40.91
Body Weight Gain (week 7, ORI 40 mg/kg, mice fed high fat diet): −1.42
Body Weight Gain [13]: 3.72
Body Weight [13]: 43.49
Weight Gain (week 7, orlistat 40 mg/kg oral): 0.02
Weight Gain [14]: −0.23
Total Body Weight [14]: 39.99
Body Weight Gain (week 8, DIO mice, SIB 10 mg/kg, ORI 40 mg/kg, Mutamba extract 32 (G1) 1000 mg/kg/day oral, mean): 2.10
Body Weight Gain (week 8, DIO mice, SIB 10 mg/kg, ORI 40 mg/kg, Mutamba extract 33-2 G1 1000 mg/kg, mean): 5.13
Total Body Weight (week 8, ORI 40 mg/kg, DIO mice (Table 52)): 42.06
Body Weight Gain [15]: 5.13
Body Weight [15]: 44.90

— patent publication US20240024403A1, “Compositions and Methods for Managing Weight” (Unigen, Inc., priority 2012, published 2024)
